Source: patent US5604234A, “Substituted thiol macrolactam immunomodulators” (Abbott Laboratories, priority 1995, dated 1997)

tested on: human mixed lymphocyte reaction (MLR); assay: human mixed lymphocyte reaction (MLR), serum free variation; format: cell-based; details: Homo sapiens, Lymphocyte, serum-free medium AIM V, Table 3
Procedure: In vitro Assay of Biological Activity (Serum Free MLR)
The in viitro immunosuppressant activity of the compounds of the present invention can also be determined using a variation of the human mixed lymphocyte reaction (MLR) assay described by Kino, T. et al. in Transplantation Proceedings, XIX(5):36-39, Suppl. 6 (1987). In this assay, the cell culture was performed in a serum-free medium, AIM V (GibcoBRL Life Technologies, Grand Island, N.Y.), instead of the usual RPMI 1640 plus 10% heat-inactivated fetal bovine serum medium. The final cell concentrations of the responder and stimulator peripheral blood mononuclear cells were, respectively, 5×10^5/mL and 2×10^6/mL of cells pooled from four donors.

Structure (SMILES) | IC50 [nM]
CCC1C=C(C)CC(C)CC(OC)C2OC(O)(C(=O)C(=O)N3CCCCC3C(=O)OC(C(C)=CC3CCC(SCC(=O)N(C)O)C(OC)C3)C(C)C(O)CC1=O)C(C)CC2OC (centres unmarked) [Example 39] | 4.8
CCC1C=C(C)CC(C)CC(OC)C2OC(O)(C(=O)C(=O)N3CCCCC3C(=O)OC(C(C)=CC3CCC(SCC(C)C(=O)OC)C(OC)C3)C(C)C(O)CC1=O)C(C)CC2OC (centres unmarked) [Example 40] | 14.9
CCOC(=O)C(C)CSC1CCC(C=C(C)C2OC(=O)C3CCCCN3C(=O)C(=O)C3(O)OC(C(OC)CC(C)CC(C)=CC(CC)C(=O)CC(O)C2C)C(OC)CC3C)CC1OC (centres unmarked) [Example 41] | 46.4
CC[C@@H]1/C=C(\C)C[C@H](C)C[C@H](OC)[C@H]2O[C@@](O)(C(=O)C(=O)N3CCCC[C@H]3C(=O)O[C@H](/C(C)=C/[C@@H]3CC[C@H](SCC(C)C(=O)O)[C@H](OC)C3)[C@H](C)[C@@H](O)CC1=O)[C@H](C)C[C@@H]2OC (some centres unmarked) [Example 43] | 22.6
CC[C@@H]1/C=C(\C)C[C@H](C)C[C@H](OC)[C@H]2O[C@@](O)(C(=O)C(=O)N3CCCC[C@H]3C(=O)O[C@H](/C(C)=C/[C@@H]3CC[C@H]([S+]([O-])c4ccc(O)cc4)[C@H](OC)C3)[C@H](C)[C@@H](O)CC1=O)[C@H](C)C[C@@H]2OC (some centres unmarked) [Example 48] | 0.9
CC[C@@H]1/C=C(\C)C[C@H](C)C[C@H](OC)[C@H]2O[C@@](O)(C(=O)C(=O)N3CCCC[C@H]3C(=O)O[C@H](/C(C)=C/[C@@H]3CC[C@H](S(=O)(=O)c4ccc(O)cc4)[C@H](OC)C3)[C@H](C)[C@@H](O)CC1=O)[C@H](C)C[C@@H]2OC [Example 49] | 2.5
CC[C@@H]1/C=C(\C)C[C@H](C)C[C@H](OC)[C@H]2O[C@@](O)(C(=O)C(=O)N3CCCC[C@H]3C(=O)O[C@H](/C(C)=C/[C@@H]3CC[C@H]([S+]([O-])CCO)[C@H](OC)C3)[C@H](C)[C@@H](O)CC1=O)[C@H](C)C[C@@H]2OC (some centres unmarked) [Example 50] | 0.24
CC[C@@H]1/C=C(\C)C[C@H](C)C[C@H](OC)[C@H]2O[C@@](O)(C(=O)C(=O)N3CCCC[C@H]3C(=O)O[C@H](/C(C)=C/[C@@H]3CC[C@H](S(=O)(=O)CCO)[C@H](OC)C3)[C@H](C)[C@@H](O)CC1=O)[C@H](C)C[C@@H]2OC [Example 51] | 0.17
CC[C@@H]1/C=C(\C)C[C@H](C)C[C@H](OC)[C@H]2O[C@@](O)(C(=O)C(=O)N3CCCC[C@H]3C(=O)O[C@H](/C(C)=C/[C@@H]3CC[C@H]([S+]([O-])CCCO)[C@H](OC)C3)[C@H](C)[C@@H](O)CC1=O)[C@H](C)C[C@@H]2OC (some centres unmarked) [Example 52] | 1.8
CC[C@@H]1/C=C(\C)C[C@H](C)C[C@H](OC)[C@H]2O[C@@](O)(C(=O)C(=O)N3CCCC[C@H]3C(=O)O[C@H](/C(C)=C/[C@@H]3CC[C@H](S(=O)(=O)CCCO)[C@H](OC)C3)[C@H](C)[C@@H](O)CC1=O)[C@H](C)C[C@@H]2OC [Example 53] | 0.04
CCOC(=O)CC[S+]([O-])[C@H]1CC[C@@H](/C=C(\C)[C@H]2OC(=O)[C@@H]3CCCCN3C(=O)C(=O)[C@]3(O)O[C@H]([C@@H](OC)C[C@@H](C)C/C(C)=C/[C@@H](CC)C(=O)C[C@H](O)[C@H]2C)[C@@H](OC)C[C@H]3C)C[C@H]1OC (some centres unmarked) [Example 60] | 6.1
CC[C@@H]1/C=C(\C)C[C@H](C)C[C@H](OC)[C@H]2O[C@@](O)(C(=O)C(=O)N3CCCC[C@H]3C(=O)O[C@H](/C(C)=C/[C@@H]3CC[C@H]([S+]([O-])CCC(=O)N(O)C(C)C)[C@H](OC)C3)[C@H](C)[C@@H](O)CC1=O)[C@H](C)C[C@@H]2OC (some centres unmarked) [Example 72] | 32.2
CC[C@@H]1/C=C(\C)C[C@H](C)C[C@H](OC)[C@H]2O[C@@](O)(C(=O)C(=O)N3CCCC[C@H]3C(=O)O[C@H](/C(C)=C/[C@@H]3CC[C@H]([S+]([O-])CC(=O)O)[C@H](OC)C3)[C@H](C)[C@@H](O)CC1=O)[C@H](C)C[C@@H]2OC (some centres unmarked) [Example 74] | 57.7
C=CCS[C@H]1CC[C@@H](/C=C(\C)[C@H]2OC(=O)[C@@H]3CCCCN3C(=O)C(=O)[C@]3(O)O[C@H]([C@@H](OC)C[C@@H](C)C/C(C)=C/[C@@H](CC)C(=O)C[C@H](O)[C@H]2C)[C@@H](OC)C[C@H]3C)C[C@H]1OC [Example 79] | 14
CC[C@@H]1/C=C(\C)C[C@H](C)C[C@H](OC)[C@H]2O[C@@](O)(C(=O)C(=O)N3CCCC[C@H]3C(=O)O[C@H](/C(C)=C/[C@@H]3CC[C@H](SCC(C)=O)[C@H](OC)C3)[C@H](C)[C@@H](O)CC1=O)[C@H](C)C[C@@H]2OC [Example 80] | 4.3
CC[C@@H]1/C=C(\C)C[C@H](C)C[C@H](OC)[C@H]2O[C@@](O)(C(=O)C(=O)N3CCCC[C@H]3C(=O)O[C@H](/C(C)=C/[C@@H]3CC[C@H](SCC(C)=NNC(N)=O)[C@H](OC)C3)[C@H](C)[C@@H](O)CC1=O)[C@H](C)C[C@@H]2OC [Example 81A] | 1.3
CC[C@@H]1/C=C(\C)C[C@H](C)C[C@H](OC)[C@H]2O[C@@](O)(C(=O)C(=O)N3CCCC[C@H]3C(=O)O[C@H](/C(C)=C/[C@@H]3CC[C@H](SCC(C)=NOC)[C@H](OC)C3)[C@H](C)[C@@H](O)CC1=O)[C@H](C)C[C@@H]2OC [Example 82] | 64
CC[C@@H]1/C=C(\C)C[C@H](C)C[C@H](OC)[C@H]2O[C@@](O)(C(=O)C(=O)N3CCCC[C@H]3C(=O)O[C@H](/C(C)=C/[C@@H]3CC[C@H](SCC(C)=NO)[C@H](OC)C3)[C@H](C)[C@@H](O)CC1=O)[C@H](C)C[C@@H]2OC [Example 83A] | 70
CC[C@@H]1/C=C(\C)C[C@H](C)C[C@H](OC)[C@H]2O[C@@](O)(C(=O)C(=O)N3CCCC[C@H]3C(=O)O[C@H](/C(C)=C/[C@@H]3CC[C@H](SC(=O)C(C)(C)C)[C@H](OC)C3)[C@H](C)[C@@H](O)CC1=O)[C@H](C)C[C@@H]2OC [Example 85] | 0.48
CC[C@@H]1/C=C(\C)C[C@H](C)C[C@H](OC)[C@H]2O[C@@](O)(C(=O)C(=O)N3CCCC[C@H]3C(=O)O[C@H](/C(C)=C/[C@@H]3CC[C@H](SC(=O)C(C)C)[C@H](OC)C3)[C@H](C)[C@@H](O)CC1=O)[C@H](C)C[C@@H]2OC [Example 86] | 1.7

Now from value to molecule:

IC50 [nM] | Structure (SMILES)
63.4 | CCC1C=C(C)CC(C)CC(OC)C2OC(O)(C(=O)C(=O)N3CCCCC3C(=O)OC(C(C)=CC3CCC(SCC(C)C(=O)OCc4ccccc4)C(OC)C3)C(C)C(O)CC1=O)C(C)CC2OC (centres unmarked) [Example 42]
8.1 | CC[C@@H]1/C=C(\C)C[C@H](C)C[C@H](OC)[C@H]2O[C@@](O)(C(=O)C(=O)N3CCCC[C@H]3C(=O)O[C@H](/C(C)=C/[C@@H]3CC[C@H]([S+]([O-])CC(=O)OCc4ccccc4)[C@H](OC)C3)[C@H](C)[C@@H](O)CC1=O)[C@H](C)C[C@@H]2OC (some centres unmarked) [Example 55]
8.1 | CC[C@@H]1/C=C(\C)C[C@H](C)C[C@H](OC)[C@H]2O[C@@](O)(C(=O)C(=O)N3CCCC[C@H]3C(=O)O[C@H](/C(C)=C/[C@@H]3CC[C@H](S(=O)(=O)CC(=O)OCc4ccccc4)[C@H](OC)C3)[C@H](C)[C@@H](O)CC1=O)[C@H](C)C[C@@H]2OC [Example 56]
2 | CC[C@@H]1/C=C(\C)C[C@H](C)C[C@H](OC)[C@H]2O[C@@](O)(C(=O)C(=O)N3CCCC[C@H]3C(=O)O[C@H](/C(C)=C/[C@@H]3CC[C@H](S(=O)(=O)CC(=O)OC)[C@H](OC)C3)[C@H](C)[C@@H](O)CC1=O)[C@H](C)C[C@@H]2OC [Example 57]
2.1 | CC[C@@H]1/C=C(\C)C[C@H](C)C[C@H](OC)[C@H]2O[C@@](O)(C(=O)C(=O)N3CCCC[C@H]3C(=O)O[C@H](/C(C)=C/[C@@H]3CC[C@H](S(=O)(=O)CC(=O)OC(C)(C)C)[C@H](OC)C3)[C@H](C)[C@@H](O)CC1=O)[C@H](C)C[C@@H]2OC [Example 58]
7.5 | CCOC(=O)CS(=O)(=O)[C@H]1CC[C@@H](/C=C(\C)[C@H]2OC(=O)[C@@H]3CCCCN3C(=O)C(=O)[C@]3(O)O[C@H]([C@@H](OC)C[C@@H](C)C/C(C)=C/[C@@H](CC)C(=O)C[C@H](O)[C@H]2C)[C@@H](OC)C[C@H]3C)C[C@H]1OC [Example 59]
2.5 | CCOC(=O)CCS(=O)(=O)[C@H]1CC[C@@H](/C=C(\C)[C@H]2OC(=O)[C@@H]3CCCCN3C(=O)C(=O)[C@]3(O)O[C@H]([C@@H](OC)C[C@@H](C)C/C(C)=C/[C@@H](CC)C(=O)C[C@H](O)[C@H]2C)[C@@H](OC)C[C@H]3C)C[C@H]1OC [Example 61]
15 | CC[C@@H]1/C=C(\C)C[C@H](C)C[C@H](OC)[C@H]2O[C@@](O)(C(=O)C(=O)N3CCCC[C@H]3C(=O)O[C@H](/C(C)=C/[C@@H]3CC[C@H]([S+]([O-])CCC(=O)OCc4ccccc4)[C@H](OC)C3)[C@H](C)[C@@H](O)CC1=O)[C@H](C)C[C@@H]2OC (some centres unmarked) [Example 63]
9.2 | CC[C@@H]1/C=C(\C)C[C@H](C)C[C@H](OC)[C@H]2O[C@@](O)(C(=O)C(=O)N3CCCC[C@H]3C(=O)O[C@H](/C(C)=C/[C@@H]3CC[C@H](S(=O)(=O)CCC(=O)OCc4ccccc4)[C@H](OC)C3)[C@H](C)[C@@H](O)CC1=O)[C@H](C)C[C@@H]2OC [Example 64]
30 | CC[C@@H]1/C=C(\C)C[C@H](C)C[C@H](OC)[C@H]2O[C@@](O)(C(=O)C(=O)N3CCCC[C@H]3C(=O)O[C@H](/C(C)=C/[C@@H]3CC[C@H](S(=O)(=O)CCC(=O)O)[C@H](OC)C3)[C@H](C)[C@@H](O)CC1=O)[C@H](C)C[C@@H]2OC [Example 78]

same assay, conditions: serum-free medium AIM V, Table 3

IC50 [nM] | Structure (SMILES)
1.6 | CC[C@@H]1/C=C(\C)C[C@H](C)C[C@H](OC)[C@H]2O[C@@](O)(C(=O)C(=O)N3CCCC[C@H]3C(=O)O[C@H](/C(C)=C/[C@@H]3CC[C@H](SCC(C)=NNC(N)=O)[C@H](OC)C3)[C@H](C)[C@@H](O)CC1=O)[C@H](C)C[C@@H]2OC [Example 81B]
67 | CC[C@@H]1/C=C(\C)C[C@H](C)C[C@H](OC)[C@H]2O[C@@](O)(C(=O)C(=O)N3CCCC[C@H]3C(=O)O[C@H](/C(C)=C/[C@@H]3CC[C@H](SCC(C)=NO)[C@H](OC)C3)[C@H](C)[C@@H](O)CC1=O)[C@H](C)C[C@@H]2OC [Example 83B]
